How the values were obtained:
Diaphorase [1] = assay: Inhibition of diaphorase by dicoumarol: NADH and dicoumarol titrated into PBS exposed to diaphorase-coated carbon working electrodes; type: biochemical
Protocol: (§1) Example 1: Inhibition of Diaphorase by Dicoumarol. For this example, the spotting formulations shown in Table 1 below were coated onto separate carbon working electrodes. A micro-syringe was use to deposit 35 nL of each formulation as a single spot having an area of around 0.2 mm^2 upon separate carbon working electrodes. Following deposition, the working electrodes were cured overnight at 25° C.
The electrodes were exposed to fresh phosphate buffered saline (PBS) solutions, and varying amounts of NADH and dicoumarol were then titrated into the buffered solutions. No glucose or GDH was added to “power” the sensors and complete the enzyme system specified above (FIG. 3B). […] To the buffered solution containing 30 μM NADH was then titrated dicoumarol up to a concentration of 100 μM. […] FIG. 10 is a graph showing the results of titrating NADH and dicoumarol (DCM) into PBS solutions exposed to the analyte sensors of Example 1 (Sensors 1-4). […] A higher signal resulted for Sensor 2 as a result of its higher concentration of diaphorase. Given the goal of making the sensor response to be diaphorase limited, further optimization work centered around optimizing the sensor response at a low-concentration loading of the diaphorase. […]

Diaphorase [2] = assay: Detection of dicoumarol with sensors whose active area holds glucose dehydrogenase, NAD and rate-limiting diaphorase: glucose and dicoumarol titrated into PBS; type: biochemical; details: Sensors 5-8; PBS with 500 μM NAD, glucose up to 50 μM; DCM titrated up to 160 μM
Protocol: as §1, with “2: Detection” for “1: Inhibition”, “Dicoumarol Using an Analyte Sensor Having an Active Area with Glucose Dehydrogenase and a Rate-Limited Electron Transfer to the Working Electrode.” for “Diaphorase by Dicoumarol.”, “2” for “1”
Glucose and dicoumarol were then titrated to PBS solutions in which the sensors were immersed. A 500 μM quantity of NAD was first added to the buffer solution, followed by three additions of glucose up to 50 μM. Thereafter, dicoumarol (DCM) was titrated up to 160 μM. FIGS. 14A and 14B are graphs showing the results of titrating glucose and dicoumarol (DCM) into PBS solutions exposed to electrodes having variable amounts of NAD-dependent glucose dehydrogenase in an active area thereon. […] As shown, increasing amounts of glucose dehydrogenase increased the signal response during glucose addition and during DCM addition.

normalized sensor response as a function of dicoumarol concentration (FIGS. 11A, 11B, 13) (Diaphorase [1]; 0.2 mg/mL diaphorase, 0.4 mg/mL electron transfer agent, NADH titrated up to 160 μM): strong inhibition
sensor signal as the dicoumarol concentration increased (FIG. 10) (Diaphorase [1]; only Sensors 2 and 4 (0.4 mg/mL Formula 1 polymer), PBS with 30 μM NADH, dicoumarol titrated up to 100 μM, no glucose or GDH): sudden and sensitive decrease in signal
Compound: O=c1oc2ccccc2c(O)c1Cc1c(O)c2ccccc2oc1=O [dicoumarol]
sensor current response during DCM addition (FIGS. 14A, 14B) (Diaphorase [2]): response decreased as increasing amounts of DCM were added
